PMC11955804, “Histidine-rich enantiomeric peptide coacervates enhance antigen sequestration and presentation to T cells” (Chemical Science, 2025)

How the values were obtained:
Turbidity assay of LLPS = type: physicochemical; details: 1× PBS pH 7.4, absorbance at 600 nm over 24 h, plate reader
Description: Peptide synthesis and purification
The L- and D-enantiomers of (GHGLY)4, (GHGVY)4 and (GHGPY)4 peptides were purchased from GenScript and used without further modification. (GHGAY)4, (GHGFY)4, (GHGIY)4 and (GHGNY)4 were synthesized using standard Fmoc-SPPS chemistry on Rink Amide with Oxyma (Ethyl cyano(hydroxyimino) acetate) and N, N′-diisopropylcarbodiimide (DIC) as coupling agents on a Liberty Blue microwave-assisted synthesizer. Peptides were cleaved using a cocktail of trifluoroacetic acid (TFA), tri-isopropyl silane (TIS), and H2O (95:2.5:2.5) and extracted and washed in cold diethyl ether. The resulting pellet was dissolved in acetonitrile/water mixture (50:50) and frozen prior to lyophilization. Peptides were purified (~90%) using High Performance Liquid Chromatography (HPLC) on a Dionex Ultimate 3000 HPLC equipped with a diode-array detector on an Agilent Poroshell RP-C18 column (4.6 mm×150 mm), operating at a flow rate of 1 mL/min. […]
Peptide solutions (0.25–1.5 mM) were prepared in 1×PBS at pH 7.4. Aliquots (140 µL) were pipetted into a 96-well plate and absorbance at 600 nm was measured over 24 h using a Synergy HT plate reader (Biotek, USA) at RT or 37°C with or without agitation. The pH dependence of LLPS formation was assessed in 0.1 M potassium phosphate buffer (with 150 mM NaCl) at different pH values (5.8, 6.6, 7.4, 8.0) and 1 mM peptide concentration. […]
NaCl) was used to study ionic strength effects. The absorbance was further converted to turbidity using methods previously described 1 and data was plotted as relative turbidity. […]
Droplets were visualized in 1×PBS using NCI Leica DMC4500 microscope in reflection mode with differential interference contrast. […] Coacervate size was measured using 1 mM peptide solutions (1×PBS, pH 7.4) on a ZEN 3600 Zetasizer (Malvern Instruments, UK) using DLS-Zen 0040 specialized cuvettes. […]
Viscosity of the peptide solutions (1 mM or 2 mM) was tested using an ARES 2000ex rotational rheometer (TA Instruments, New Castle, DE). […] Viscosity was measured as a function

DCs = assay: DQ-OVA delivery to lysosomes (fluorescence microscopy); type: cell-based, mouse; details: DQ-OVA loaded coacervates, 2.5 μg/mL DQ-OVA, fluorescence microscopy
Description: page 13: Flow cytometry The transfected A549 cells were washed with FACS wash buffer (FWB; 1× PBS with 10% […] Cells were washed again with FWB and then resuspended in 100 µl of PBS with eBioscience™ Fixable Viability Dye eFluor™ 506 antibody. The staining was quenched with FWB following a 20 min incubation. The cells were centrifuged, washed 2× times with FWB, and resuspended in 100 µl FWB with CD55 (DAF) Antibody (anti-human; miltenyibiotec Cat#130-126-382). After 20 min, staining was quenched, cells washed twice and resuspended in 200 µl FWB for acquisition. Single-stained cells stained with eFluor™ 506, CD55 (DAF) Antibody, were used as compensation controls. Samples were acquired using an Agilent NovoCyte 3000 flow cytometer. Data were analyzed with FlowJo version 10. […] was quantified as the percentage CD55+ cells, considering untreated cells as the negative control and Lipofectamine treated ones as the positive control. Antigen delivery to lysosomes and inhibitor effects DC 2.4 cells were cultured in RPMI-1640 (Catalog number: 11875093) medium supplemented with 10% FBS, 100 U/mL penicillin, 100 μg/mL streptomycin, and 1 mM sodium pyruvate. Cells were plated in 8-well chamber slides (5000 cells in 200 μL of media) and incubated for 24 h prior to addition of DQ-OVA loaded coacervates for 2 h, 6 h, or 24 h (final DQ-OVA concentration was 2.5 μg/mL). Cells treated with PBS or soluble OVA served as controls. Cells were then washed and fixed using 4% Paraformaldehyde (PFA) for 15 min at RT and permeabilized with 0.1% Triton X-100 for 5 min prior to nuclear staining with Hoechst stain (Catalog number: 62249, Thermo Fischer Scientific; 10 μg/mL). Cells were imaged (60×) on Lionheart FX automated microscope (BioTek Instruments, Inc.) with controlled exposure S13 page 14: parameters across two channels: eGFP and DAPI.

[1] = Encapsulation efficiency measurement; type: physicochemical; details: 1 mM peptide, 1 µM eGFP in PBS; centrifuged 15,000 × g 10 min; fluorescence of supernatant (λex 395 nm, λem 510 nm)
Description: Encapsulation efficiency measurements […]
powders to a final peptide concentration of 1 mM. Cargo concentrations in the stock solutions […]
nm and λem: 519 nm). For small molecule dyes, similar methods were used. The encapsulation efficiency was determined as reported previously 12.
Cellular uptake and antigen presentation assays […]
to addition of OVA-loaded coacervates. Final OVA concentration was 1 µg/mL for time- […]
37°C and complete RPMI media served as controls. Soluble OVA and PBS treated cells were used as controls for antigen delivery.

Row | Substance | turbidity over time (A600) (Turbidity assay of LLPS) | lysosomal processing of DQ-OVA delivered by coacervates (DCs) | eGFP loading efficiency [1]
1 | (GHGLY)4 [GL 20] | formed a turbid solution instantaneously | Green fluorescent puncta were detected | ~90%
2 | (GHGVY)4 [GV 20] | steadily increased over 24 h | Green fluorescent puncta were detected | ~75%
